{"source": "patent US20080206183A1", "about": "“Method of Preparing Grafted Polylysine Dendrimers” (Central national De La Recherche Scientifique, priority 2005, published 2008)", "key": {"[1]": {"test": "Hydrodynamic range by Taylor diffusion analysis (TDA)", "format": "physicochemical", "protocol": "(§1) In order to find the characteristic dimension of the GLDs in solution, the hydrodynamic ranges were determined from the molecular diffusion coefficients by using the Stoke-Einstein ratio:\n(§2) where η is the viscosity of the medium, k the Boltzmann constant and T the temperature in K. In order to determine Dm, two experimental methods were used: quasi-elastic or static light diffusion (SLD) (coupled or not coupled with SEC), and the Taylor diffusion method (TDA). This latter method makes it possible to measure the diffusion coefficient of a species from the widening of a solute band under the influence of a hydrodynamic flow the speed profile of which is known to be dispersive (parabolic Poiseuille profile).\n(§3) The TDA measurements were carried out using a capillary electrophoresis appliance, using silica capillaries of 50 μm i.d. (60 cm×50 cm up to the detector) the internal surface of which was previously modified by grafting a polycation (poly(diallyl-dimethyl-ammonium)) in order to limit the adsorption of the GLD solutes on the surface of the capillary. Dispersion of the solute band under the influence of the Poiseuille flow was measured using a UV spectrophotometer. The diffusion coefficient was then determined according to the method originally described by Taylor, then repeated by Bello et al.. In parallel to the TDA method, measurements were carried out by SLD, using a zetasizer (Malvern) device. Finally, it was also possible to obtain Rh measurements from the 3D-SEC (Viscotek). All of the numerical data for Rh is shown together in Table 3."}, "[2]": {"test": "Hydrodynamic range by quasi-elastic or static light diffusion (SLD)", "format": "physicochemical", "protocol": "as §1, §2, §3"}, "[3]": {"conditions": "Buffer 1 (H2PO4−Na+ 50 g/L, pH 4.5)"}, "[4]": {"conditions": "Buffer 2 (Buffer 1 + 3% acetonitrile)"}, "[5]": {"conditions": "Buffer 3 (physiological buffer, pH 7.0)"}}}
{"substance": "linear poly-L-Lysine [P1]", "values": [{"measurement": "Rh (nm) hydrodynamic range", "setting": "[1]; [3]", "result": 1.1, "unit": "nm"}, {"measurement": "Rh (nm) hydrodynamic range", "setting": "[1]; [4]", "result": 0.95, "unit": "nm"}, {"measurement": "Rh (nm) hydrodynamic range", "setting": "[1]; [5]", "result": 0.74, "unit": "nm"}, {"measurement": "Rh (nm) hydrodynamic range", "setting": "[2]; [3]", "result": 1.18, "unit": "nm"}, {"measurement": "Rh (nm) hydrodynamic range", "setting": "[2]; [4]", "result": 1.1, "unit": "nm"}, {"measurement": "Rh (nm) hydrodynamic range", "setting": "[2]; [5]", "result": 1.01, "unit": "nm"}]}
